From patent US20250313563A1, “GLYCOGEN SYNTHASE KINASE 3 INHIBITORS AND USES THEREOF” (The Broad Institute, Inc., priority 2022, published 2025)
Where two headings read alike, the source gives them in different places.

Assays:
[1] = molecular target: GSK3b (GST-full length GSK3b) (Homo sapiens (Human), UniProt P49841); assay: GSK3b TR-FRET kinase assay; type: biochemical
Procedure, shortened: (§1)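 IC50 came from the normalized 665/615 nm TR-FRET ratio plotted against log compound concentration. The Tb-labelled pSer641 antibody and streptavidin-d2 detected phosphorylation of biotinylated S645-primed glycogen synthase peptide (200 nM) by 1 nM full-length GST-kinase. ATP was 4 μM for α, 2 μM for β, or 1 mM.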

[2] = molecular target: GSK3α (GST-full length GSK3α) (Homo sapiens (Human), UniProt P49840); assay: GSK3α TR-FRET kinase assay; type: biochemical
Procedure, shortened: as §1

[3] = 1 nM GSK3b, 2 μM ATP, 30 minute preincubation, Table 16, read-out: GSK3-B TR-FRET BIOCHEMICAL (TR-FRET)
[4] = 1 nM GSK3α, 4 μM ATP, 30 minute preincubation, Table 16, read-out: GSK3-A TR-FRET BIOCHEMICAL (TR-FRET)
[5] = 1 nM GSK3b, 2 μM ATP, 30 minute preincubation, Table 16, read-out: GSK3-B TR-FRET BIOCHEMICAL (TR-FRET), IC50
[6] = 1 nM GSK3α, 4 μM ATP, 30 minute preincubation, Table 16, read-out: GSK3-A TR-FRET BIOCHEMICAL (TR-FRET), IC50
[7] = 1 nM GSK3b, 2 μM ATP, 30 minute preincubation, read-out: GSK3-B TR-FRET BIOCHEMICAL (TR-FRET), IC50
[8] = 1 nM GSK3α, 4 μM ATP, 30 minute preincubation, read-out: GSK3-A TR-FRET BIOCHEMICAL (TR-FRET), IC50

Chain of GSK3b (GST-full length GSK3b) (P49841 whole entry): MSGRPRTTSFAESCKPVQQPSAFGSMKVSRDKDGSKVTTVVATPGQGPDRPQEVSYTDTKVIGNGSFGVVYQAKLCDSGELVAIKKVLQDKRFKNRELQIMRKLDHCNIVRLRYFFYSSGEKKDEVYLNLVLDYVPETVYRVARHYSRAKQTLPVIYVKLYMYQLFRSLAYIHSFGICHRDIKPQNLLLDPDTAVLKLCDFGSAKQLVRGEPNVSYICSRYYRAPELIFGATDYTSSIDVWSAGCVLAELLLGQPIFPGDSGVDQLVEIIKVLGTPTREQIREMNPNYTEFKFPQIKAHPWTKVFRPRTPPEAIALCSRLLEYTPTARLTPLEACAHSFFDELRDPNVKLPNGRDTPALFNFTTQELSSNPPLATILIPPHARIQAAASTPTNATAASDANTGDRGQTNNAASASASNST
Chain of GSK3α (GST-full length GSK3α) (P49840 whole entry): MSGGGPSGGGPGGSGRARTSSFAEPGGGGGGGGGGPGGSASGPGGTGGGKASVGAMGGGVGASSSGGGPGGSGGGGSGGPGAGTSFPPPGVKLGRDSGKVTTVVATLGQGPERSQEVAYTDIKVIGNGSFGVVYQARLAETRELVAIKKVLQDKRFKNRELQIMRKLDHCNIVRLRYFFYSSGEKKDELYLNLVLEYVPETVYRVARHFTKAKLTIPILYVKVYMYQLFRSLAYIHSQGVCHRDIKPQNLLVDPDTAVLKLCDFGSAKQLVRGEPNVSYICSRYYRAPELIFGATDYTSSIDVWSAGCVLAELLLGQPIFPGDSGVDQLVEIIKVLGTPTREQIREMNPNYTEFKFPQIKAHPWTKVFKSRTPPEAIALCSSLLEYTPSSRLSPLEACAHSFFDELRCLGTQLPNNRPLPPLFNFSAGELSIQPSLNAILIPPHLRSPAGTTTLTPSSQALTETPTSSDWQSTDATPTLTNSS

Row | SMILES | IC50 [1, 3] [nM] | IC50 [2, 4] [nM] | IC50 [1, 5] [nM] | IC50 [2, 6] [nM] | also measured
1 | COc1cccc(S(=O)(=O)N2CCCC3(CC2)C2=C(CC(C)(C)CC2=O)Nc2n[nH]cc23)c1 (centres unmarked) [Compound 917140] | 100 to 1000 | ≤ 100 | – | – | –
2 | COc1ccc(S(=O)(=O)N2CCCC3(CC2)C2=C(CC(C)(C)CC2=O)Nc2n[nH]cc23)cc1 (centres unmarked) [Compound 917141] | 100 to 1000 | ≤ 100 | – | – | –
3 | COc1ccccc1S(=O)(=O)N1CCCC2(CC1)C1=C(CC(C)(C)CC1=O)Nc1n[nH]cc12 (centres unmarked) [Compound 917142] | 100 to 1000 | ≤ 100 | – | – | –
4 | COc1ccc(S(=O)(=O)N2CCC3(CC2)C2=C(CC(C)(C)CC2=O)Nc2n[nH]cc23)cc1 [Compound 917143] | ≤ 100 | ≤ 100 | – | – | –
5 | CC1(C)CC(=O)C2=C(C1)Nc1n[nH]cc1C21CN(S(=O)(=O)c2ccc(F)cc2)C1 [Compound 917144] | ≤ 100 | ≤ 100 | – | – | –
6 | CC1(C)CC(=O)C2=C(C1)Nc1n[nH]cc1C21CCCN(c2ccncn2)CC1 (centres unmarked) [Compound 917145] | – | – | 1000 to 5000 | 1000 to 5000 | –
7 | CCc1cc(N(C)c2cccc(C3(CC)C4=C(CC(C)(C)CC4=O)Nc4n[nH]cc43)c2)ccn1 (centres unmarked) [Compound 917147] | – | – | 100 to 1000 | ≤ 100 | –
8 | CCC1(c2cccc(N(C)c3ccnc(C)c3)c2)C2=C(CC(C)(C)CC2=O)Nc2n[nH]cc21 (centres unmarked) [Compound 917149] | – | – | 1000 to 5000 | 100 to 1000 | –
9 | CCC1(c2cccc(N(C)c3ccc(F)nc3)c2)C2=C(CC(C)(C)CC2=O)Nc2n[nH]cc21 (centres unmarked) [Compound 917152] | – | – | 100 to 1000 | ≤ 100 | –
10 | C[C@@H]1C[C@]2(CCN1S(=O)(=O)c1ccn(C)n1)C1=C(CC(C)(C)CC1=O)Nc1n[nH]cc12 [Compound 917160] | 100 to 1000 | 100 to 1000 | – | – | –
11 | C[C@@H]1C[C@@]2(CCN1S(=O)(=O)c1ccn(C)n1)C1=C(CC(C)(C)CC1=O)Nc1n[nH]cc12 [Compound 917161] | ≤ 100 | ≤ 100 | – | – | –
12 | CCC1(c2cccc(Oc3cncnc3)c2)C2=C(CC(C)(C)CC2=O)Nc2n[nH]cc21 (centres unmarked) [Compound 917212] | – | – | 100 to 1000 | ≤ 100 | –
13 | CC1(C)CC(=O)C2=C(C1)Nc1n[nH]cc1C21Cc2ccccc21 (centres unmarked) [Compound 917226] | – | – | 100 to 1000 | 100 to 1000 | –
14 | CC1(C)CC(=O)C2=C(C1)Nc1n[nH]cc1C21COC2(CN(C(=O)c3ccccc3)C2)C1 (centres unmarked) [Compound 917231] | – | – | – | – | IC50 [1, 7]: ≤ 100 nM; IC50 [2, 8]: ≤ 100 nM
15 | CC1(C)CC(=O)C2=C(C1)Nc1n[nH]cc1C21COC2(CN(C(=O)C3CCCC3)C2)C1 (centres unmarked) [Compound 917232] | – | – | – | – | IC50 [1, 7]: ≤ 100 nM; IC50 [2, 8]: ≤ 100 nM
16 | CC[C@@]1(c2cccc(C(F)(F)F)c2)C2=C(CCN(C)C2=O)Nc2n[nH]cc21 [Compound 917282] | – | – | – | – | IC50 [1, 7]: 100 to 1000 nM; IC50 [2, 8]: ≤ 100 nM
17 | CC[C@]1(c2cccc(C(F)(F)F)c2)C2=C(CCN(C)C2=O)Nc2n[nH]cc21 [Compound 917283] | – | – | – | – | IC50 [1, 7]: > 5000 nM; IC50 [2, 8]: > 5000 nM

Now from value to molecule, other results behind:

Row | IC50 [1, 3] [nM] | IC50 [2, 4] [nM] | IC50 [1, 5] [nM] | IC50 [2, 6] [nM] | SMILES | also measured
18 | – | – | ≤ 100 | ≤ 100 | CCC1(c2cccc(N(C)c3ccnc(F)c3)c2)C2=C(CC(C)(C)CC2=O)Nc2n[nH]cc21 (centres unmarked) [Compound 917146] | –
19 | – | – | ≤ 100 | ≤ 100 | CCC1(c2cccc(S(=O)(=O)CC3CC3)c2)C2=C(CC(C)(C)CC2=O)Nc2n[nH]cc21 (centres unmarked) [Compound 917150] | IC50 ([1]; read-out: GSK3-B (TR-FRET 1 mM ATP), GMean, IC50, 1 mM ATP, geometric mean): 100 to 1000 nM; IC50 ([2]; read-out: GSK3-A (TR-FRET 1 mM ATP), GMean, IC50, 1 mM ATP, geometric mean): ≤ 100 nM
20 | – | – | > 5000 | 1000 to 5000 | CC[C@@]1(c2cccc(S(=O)(=O)CC3CC3)c2)C2=C(CC(C)(C)CC2=O)Nc2n[nH]cc21 [Compound 917151] | –
21 | > 5000 | > 5000 | – | – | CC[C@@]1(c2cccc(C(F)(F)F)c2)C2=C(CNC2=O)Nc2n[nH]cc21 [Compound 917157] | –
22 | 1000 to 5000 | 100 to 1000 | – | – | CCC1(c2cccc(C(F)(F)F)c2)C2=C(CNC2=O)Nc2n[nH]cc21 (centres unmarked) [Compound 917158] | –
23 | 100 to 1000 | ≤ 100 | – | – | CCC1(c2cccc(C(F)(F)F)c2)C2=C(CN(Cc3ccccc3)C2=O)Nc2n[nH]cc21 (centres unmarked) [Compound 917159] | –
24 | – | – | > 5000 | > 5000 | CC[C@]1(c2cccc(N3CCCC[C@H]3C)c2)C2=C(CC(C)(C)CC2=O)Nc2n[nH]cc21 [Compound 917210] | –
